Experimental data from US20250019339A1, “SOLVENT COMPOUNDS FOR USE AS REPLACEMENTS FOR SLOW EVAPORATING SOLVENTS” (TBF ENVIRONMENTAL TECHNOLOGY INC., priority 2018, published 2025).

How the values were obtained:
Type in all cases: physicochemical
[1] = Flash point, PMCC closed cup; conditions: PMCC (Penske Martin Closed Cup)
Method: (§1) (420.8° F.) • Flash Point: 85.5° C.

[2] = Sustained combustion tests
Method: as §1

Evaporation rate = assay: Evaporation rate
Specific gravity = assay: Specific gravity
Kauri-Butanol value = assay: Kauri-Butanol value
Vapour pressure = conditions: @25° C.
Boiling point = assay: Boiling point

Flash Point [1]: 85.5 °C
Sustained combustion [2]: did not sustain combustion
Evaporation rate (Evaporation rate): 0.04
Specific Gravity (Specific gravity): 0.916
Kauri-Butanol Value (Kauri-Butanol value): 77.5
Vapour pressure (Vapour pressure): 0.09 mm Hg
Boiling Point (Boiling point): 216 °C
SMILES: CCCCC(CC)COC(=O)OC (stereo not shown) [BibaSol, 2-ethylhexyl methyl carbonate]
